The nature of this data set: molar enthalpy of vaporization or sublimation. The settings on record: 298 K; Liquid; Chromatographic retention time.

Drawing on the NIST ThermoML archive (doi:10.1021/acs.jced.5b00444), this text covers molar enthalpy for 17 molecules.

Structures are written as SMILES. ± gives the expanded uncertainty stated by the source.

`CCCCOC(=O)c1ccccc1C(=O)OCc1ccccc1` [benzyl butyl 1,2-benzenedioate]: the molar enthalpy stood at 109.8 ± 0.2 kJ/mol.

With `CCCCC(CC)COC(=O)c1ccccc1C(=O)OCC(CC)CCCC` (configuration not stated) [bis(2-ethylhexyl) 1,2-benzenedicarboxylate], the molar enthalpy is 116.9 ± 0.1 kJ/mol.

For `CCCCOC(=O)c1ccccc1C(=O)OCCCC` [dibutyl phthalate], the molar enthalpy worked out at 99.3 ± 0.1 kJ/mol.

In the case of `CCOC(=O)c1ccccc1C(=O)OCC` [diethyl phthalate], the molar enthalpy worked out at 88.6 ± 0.1 kJ/mol.

In the case of `COC(=O)c1ccccc1C(=O)OC` [dimethyl 1,2-benzenedicarboxylate], the molar enthalpy was 84.2 ± 0.1 kJ/mol.

`CCCCCCCCOC(=O)c1ccccc1C(=O)OCCCCCCCC` [dioctyl 1,2-benzenedicarboxylate]: the molar enthalpy came to 122.7 ± 0.2 kJ/mol.

For `CCCCCCCCCCCCCCCCCCCCCC` [docosane], the molar enthalpy was determined as 110 ± 1 kJ/mol.

In the case of `CCCCCCCCCCCCCCCCCCCC` [eicosane], the molar enthalpy was 103.9 ± 0.1 kJ/mol.

As for `CCCCCCCCCCCCCCCCCC(=O)OCC` [ethyl octadecanoate], the molar enthalpy was 109.3 ± 0.5 kJ/mol.

Regarding `CCCCCCCCCCCCCCCCCCCCCCCCCC` [hexacosane], the molar enthalpy came to 122 ± 1 kJ/mol.

As for `CCCCCCCCCCCCCCCCCCCC(=O)OC` [methyl eicosanoate], the molar enthalpy came to 111.1 ± 0.1 kJ/mol.

Turning to `CCCCCCCCCCCCCCCCCCCCC(=O)OC` [methyl heneicosanoate], the molar enthalpy was 116.3 ± 0.1 kJ/mol.

With `CCCCCCCCCCCCCCCC(=O)OC` [methyl hexadecanoate], the molar enthalpy is 101.8 ± 0.1 kJ/mol.

Take `CCCCCCCCCCCCCCCCCC(=O)OC` [methyl octadecanoate]: the molar enthalpy was 107.9 ± 0.1 kJ/mol.

In the case of `CCCCCCCCCCCCCCCCCCCCCCCCCCCC` [octacosane], the molar enthalpy came to 128.6 ± 0.5 kJ/mol.

Turning to `CCCCCCCCCCCCCCCCCCCCCCCCC` [pentacosane], the molar enthalpy turned out to be 119.1 ± 0.1 kJ/mol.

Consider `CCCCCCCCCCCCCCCCCCCCCCCC` [tetracosane], for which the molar enthalpy came to 116.1 ± 0.1 kJ/mol.
